Assay [1] concerns Human glioma (SNB-19). Description: MTT cell viability assay (anti-proliferation activity). The format is cell-based. To be noted: SNB-19, 48 h incubation; read-out: concentration at which 50% cell growth inhibition occurs (IC50). The method, then:
(§1) The colorectal cancer (HT-29), lung carcinoma (A549) and T-cell leukemia (Jurkat) cell lines were maintained as monolayer cultures in RPMI-1640 supplemented with 100 µg/ml streptomycin, 100 U/ml penicillin and 10% (v/v) foetal bovine serum (FBS) (all from Sigma, Ireland). Human glioma (SNB-19), human pancreatic carcinoma (MiaPaCa) and breast carcinoma (MDA-MB-231) cells were obtained from the American Type Culture Collection (ATCC) and maintained in Dulbecco's Modified Eagle's Medium (DMEM) supplemented with 100 µg/ml streptomycin, 100 U/ml penicillin, 2 mM L-glutamine, and 10% (v/v) FBS. The melanoma cell line (WM793) was originally isolated from a superficial spreading melanoma and maintained in DMEM, supplemented with 10% (v/v) FBS, 50 µg/ml gentamicin and 4 µg/ml insulin (Sigma, Ireland). HeLa cells were obtained from the ATCC and maintained in DMEM supplemented with 100 µg/ml streptomycin, 100 U/ml penicillin, 2 mM L-glutamine, 0.1 mM non-essential amino acids (NEAA, Sigma), and 10% (v/v) FBS. Human umbilical vein endothelial cells (HUVEC) cells were obtained from Cambrex and maintained in an endothelial cell growth medium (Lonza, Dublin Ireland). Human Dermal fibroblast (HDF) cells were obtained from the European Collection of Cell Culture (ECACC) and were maintained in DMEM supplemented with 100 µg/ml streptomycin, 100 U/ml penicillin, 2 mM L-glutamine, and 10% (v/v) FBS. All cells were grown in humidified atmosphere of 95% air and 5% CO2 at 37°C.
(§2) Reduction of MTT [(3-(4,5-dimethylthiazol-2-yl)-2,5-diphenyltetrazolium bromide] by cells was assessed colorimetrically as previously described. Assays were carried out after 48 h of cell incubation (72 h for combinational studies) in the media containing test compounds at concentrations ranging from 200 µM to 0.2 µM depending upon compounds being tested.
(Tetrazolium dyes change colour on reduction, which living cells bring about.)

The test system of assay [2] is human pancreatic carcinoma (MiaPaCa). The description is as above. The assay is classed as cell-based. To be noted: 48 h incubation, read-out: concentration at which 50% cell growth inhibition occurs (IC50). The method, then: as §1, §2
Assay [3] concerns T-cell leukemia (Jurkat). Described as above. To be noted: 48 h incubation, read-out: concentration at which 50% cell growth inhibition occurs (IC50). The assay is classed as cell-based, human. Here is the method:
as §1, §2

Assay [4] has as its system HeLa cells. The assay is described as above. The format is cell-based, human. The method, then: as §1, §2
Assay [5] deals with Jurkat. To be noted: cited from earlier work.
In assay [6] the test system is MDA-MB-231. To be noted: cited from earlier work.
Assay [7] deals with Human umbilical vein endothelial cells (HUVEC). Description: MTT cell viability assay (anti-proliferation activity). The format is cell-based. To be noted: 48 h incubation, read-out: concentration at which 50% cell growth inhibition occurs (IC50). The method, then: as §1, §2
Assay [8] relates to breast carcinoma (MDA-MB-231) cells. The assay is described as above. The assay is classed as cell-based, human. To be noted: 48 h incubation, read-out: concentration at which 50% cell growth inhibition occurs (IC50). The method, then:
as §1, §2

Assay [9] concerns melanoma cell line (WM793). The description is as above. The format is cell-based, human. To be noted: WM793, 48 h incubation; read-out: concentration at which 50% cell growth inhibition occurs (IC50). Here is the method:
as §1, §2

For assay [10], the system named is colorectal cancer (HT-29). The description is as above. To be noted: HT-29, 48 h incubation; read-out: concentration at which 50% cell growth inhibition occurs (IC50). The format is cell-based, human. Here is the method:
as §1, §2

In assay [11] the test system is HeLa. Nature of the assay: Western blot analysis of apoptosis markers. To be noted: Fig. 5A. The format is cell-based, human. Here is the method: (§3) Cells were lyzed and protein levels determined using the bicinchoninic acid method (Pierce, Rockford, IL). Protein samples were separated by SDS-PAGE under reducing conditions. Resolved proteins were transferred to methanol-activated polyvinylidenedifluoride (PVDF) membrane (Millipore, Bedford, MA, USA and blocked in 5% (w/v) bovine serum albumin for 1 h at room temperature. Primary antibody was applied to membranes overnight at 4°C (anti-cleaved Caspase 3, 8, 9 and poly ADP-ribose polymerase (PARP), (1:1000 dilution; Cell Signaling Technology, Danvers, USA). Chemiluminescent signal was detected using the Fluorchem FC2 Imaging System (Alpha Innotech, Switzerland). Membranes were stripped and reprobed with anti-β-actin antibodies (1:1000 dilution; Santa-Cruz Biotechnology, Santa Cruz, USA) so as to provide loading control.
(In general: A western blot detects proteins with antibodies after separation by electrophoresis.)

Assay [12] deals with MiaPaCa. Description: Western blot analysis of apoptosis markers. The assay is classed as cell-based, human. To be noted: Fig. 5B. The method, then: as §3
Assay [13] relates to Human Dermal fibroblast (HDF) cells. Description: MTT cell viability assay (anti-proliferation activity). To be noted: 48 h incubation, read-out: concentration at which 50% cell growth inhibition occurs (IC50). The format is cell-based. Here is the method:
as §1, §2

The test system of assay [14] is lung carcinoma (A549). The assay is described as above. The format is cell-based, human. To be noted: A549, 48 h incubation; read-out: concentration at which 50% cell growth inhibition occurs (IC50). The method, then:
as §1, §2

Setting [15] is: HeLa, 48 h incubation, read-out: concentration at which 50% cell growth inhibition occurs (IC50).

Where two headings read alike, the source gives them in different places.

C10-kwklfkklpkflhlakkf [C10DP18L]: the IC50 worked out at 4.3 ± 0.9 µM in assay [1], 5 ± 1.5 µM in assay [2], 3.8 ± 0.4 µM in assay [3] and 3 ± 0.1 µM in [4] (setting [15]).
In the case of KWKLFKKIPKFLHLAKKF [P18], the cytotoxic activity result in [5] and in [6] was “displays cytotoxic activity” throughout.
Take “Kwklfkkipkflhlakkf (SEQ ID NO: 2) [DP18]”: the IC50 in assay [1] came to 18.6 ± 1.5 µM; in [7], 100 ± 9 µM; in assay [2], 18.9 ± 1.5 µM; in [8], 18.6 ± 0.8 µM; in [9] it was 22.8 ± 0.8 µM; in assay [4] (setting [15]), 18 ± 0.4 µM. The IC50 in assay [10] was determined as 17.5 ± 0.5 µM.
Take “Kwklfkklpkflhlakkf (SEQ ID NO: 1) [DP18L]”: the IC50 turned out to be 27.3 ± 1.8 µM in assay [1]; 140 ± 18 µM in assay [7]; 13.9 ± 0.6 µM in [2]; 4.2 ± 0.6 µM in assay [3]; 13.4 ± 2.4 µM in assay [8]; 18.7 ± 3 µM in assay [9]. For the same substance, the IC50 in [4] (setting [15]) was 12.7 ± 1.2 µM; in [10] it was 18.3 ± 0.9 µM. In addition, the “Caspase 8” value in [11] and in [12] was “not detected at significant levels” throughout. In addition, the “apoptotic cell death (activation of caspase 3, 9 and the caspase substrate PARP)” value in assay [11] and in [12] was “induces apoptotic cell death” each time.
On to R10-kwklfkklpkflhlakkf [R10DP18L], for which the IC50 in [13] was 7.9 ± 0.4 µM; in assay [7], 9.2 ± 0.8 µM; in [3] it was 3 ± 0.5 µM; in assay [8] it was 3.1 ± 0.8 µM; in assay [14] it was 2.5 ± 0.7 µM; in [4] (HeLa cells, concentration used in uptake study of biotinylated peptides (Fig. 3A), read-out: approximately the IC50 value), roughly 2.4 µM. Besides, the IC50 in assay [4] (setting [15]) is 2.8 ± 0.3 µM.

Source of the values: patent EP2754453A1, “Conjugate of a cationic antimicrobial peptide and of a fatty acid for use as an anti-cancer agent” (UNIVERSITY COLLEGE DUBLIN, priority 2013, dated 2014).
